From PubChem BioAssay (NCI)
Values joined by “and” are separate entries in the source; they are usually repeats but may differ in a detail not shown here. Equal values may be shown once.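 The compound was tested at five concentrations on cells cultured in 96-well plates, with a 48-hour exposure period. At the GI50, growth is halved. TGI denotes the concentration required for complete inhibition of growth.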

Key:
Assay in all cases: DTP human tumour cell line panel, 48 h
[1] = tested on: KM20L2 colon
[2] = tested on: M19-MEL melanoma
[3] = tested on: NCI-H460 lung
[4] = tested on: OVCAR-3 ovarian
[5] = tested on: OVCAR-4 ovarian
[6] = tested on: SF-268 CNS
[7] = tested on: SK-MEL-5 melanoma
[8] = tested on: SNB-75 CNS
[9] = tested on: SR leukemia
[10] = tested on: T-47D breast

Row | SMILES | TGI [1] [µM] | TGI [2] | TGI [3] | TGI [4] [µM] | TGI [5] | TGI [6] | TGI [7] | TGI [8] [µM] | GI50 [1] [µM] | GI50 [2] [µM] | GI50 [3] [µM] | GI50 [4] [µM] | GI50 [5] [µM] | GI50 [6] [µM] | GI50 [7] [µM] | GI50 [8] [µM] | GI50 [9] | TGI [9] | GI50 [10] [µM] | TGI [10] [µM]
1 | CN(C)CCC(/C=C/c1ccccc1)=N\Nc1ccc(Cl)cc1 | 3.62 | 19.7 µM | 4.29 µM | 22.5 | 21.7 µM | 6.56 µM | 31.5 µM | 15.6 | – | – | – | – | – | – | – | – | – | – | – | –
2 | COc1ccc(C(=O)C/C(=N/NC(N)=S)C(=O)Nc2ccccc2)cc1 | > 100 | > 100 µM | > 100 µM | > 100 | > 100 µM | > 100 µM | > 100 µM | > 100 | – | – | – | – | – | – | – | – | – | – | – | –
3 | C[CH2][Ge]([CH2]C)([CH2]C)[O]C(=O)C([O][Ge]([CH2]C)([CH2]C)[CH2]C)c1ccccc1 (stereo unspecified) | 42.8 | 42.9 µM | > 100 µM | 37.3 | > 100 µM | > 100 µM | 26.8 µM | 62.7 | 17 | 16.9 | 16.3 | 16.2 | 6.36 | 25.8 | 11.8 | 18.3 | 14.5 µM | 75.4 µM | – | –
4 | CCP(C)(C)=O | > 100 | > 100 µM | > 100 µM | > 100 | > 100 µM | > 100 µM | > 100 µM | > 100 | – | – | – | – | – | – | – | – | – | – | – | –
5 | CC(C)(C)c1cc(-c2c3nc(c(-c4cc(C(C)(C)C)cc(C(C)(C)C)c4)c4ccc([nH]4)c(-c4cc(C(C)(C)C)cc(C(C)(C)C)c4)c4nc(c(-c5cc(C(C)(C)C)cc(C(C)(C)C)c5)c5ccc2[nH]5)C=C4)C=C3)cc(C(C)(C)C)c1 | > 100 | – | > 100 µM | > 100 | > 100 µM | > 100 µM | > 100 µM | > 100 | – | – | – | – | – | – | – | – | – | > 100 µM | – | –
6 | CCOC(=O)C1=C(C)N(NC(=O)OC)C2(N)N(NC(=O)OC)C(C)=C(C(=O)OCC)C12C#N (stereo unspecified) | > 100 | > 100 µM | > 100 µM | > 100 | > 100 µM | > 100 µM | > 100 µM | > 100 | – | – | – | – | – | – | – | – | – | > 100 µM | – | –
7 | Cc1ccccc1NC(=O)C(=O)CC(=O)C1CCOC1=O (stereo unspecified) | > 100 | > 100 µM | > 100 µM | > 100 | > 100 µM | > 100 µM | > 100 µM | > 100 | – | – | – | – | – | – | – | – | – | – | – | –
8 | NC1=NCC(c2ccccn2)C1c1ccc(F)cc1 (stereo unspecified) | > 100 | > 100 µM | > 100 µM | > 100 | > 100 µM | > 100 µM | > 100 µM | > 100 | – | – | – | – | – | – | – | – | – | > 100 µM | – | –
9 | CC1(C)Cc2nnsc2C2=C1C(=O)CCS2 | > 100 | – | > 100 µM | > 100 | > 100 µM | > 100 µM | > 100 µM | > 100 | – | – | – | – | – | – | – | – | – | – | – | –
10 | O=C([CH-]C(=O)c1ccccc1)c1ccccc1.[CH3-].[CH3-].[CH3-].[Sn+4] | 58 | – | > 100 µM | 71.8 | 56.1 µM | 81.3 µM | 35.1 µM | > 100 | 16.3 | – | 6.89 | 12.7 | 8.81 | 12.9 | 8.21 | 19.4 | 1.93 µM | 11.5 µM | – | –
11 | C/C(CC(=O)Nc1ccccc1)=N\NC(N)=S | > 100 | > 100 µM | > 100 µM | > 100 | – | > 100 µM | > 100 µM | > 100 | – | – | – | – | – | – | – | – | – | – | – | –
12 | COc1ccc(/C(=C\c2cc(OC)c(OC)c(OC)c2)C(=O)O)cc1 | 45 | > 100 µM | > 100 µM | > 100 | > 100 µM | > 100 µM | 41.7 µM | 75.1 | – | – | – | – | – | – | – | – | – | > 100 µM | – | –
13 | O=C1[C@@H]2C(c3ccncc3)=NO[C@@H]2C(=O)N1c1ccc(Cc2ccc(N3C(=O)[C@H]4C(c5ccncc5)=NO[C@H]4C3=O)cc2)cc1 | > 100 | > 100 µM | > 100 µM | > 100 | > 100 µM | > 100 µM | > 100 µM | > 100 | – | – | – | – | – | – | – | – | – | – | – | –
14 | C[C@@H]1CC[C@@H]2[C@@H]1[C@H](OC(=O)c1ccc3ccccc3c1)[C@]1(C3CCCCC3)C[C@@H](OC(=O)CO)[C@@]2(C)O1 | – | – | 23.7 µM | 27.1 | 24.8 µM | 19.5 µM | 27.4 µM | 18.8 | – | – | 9.27 | 12.9 | 10.8 | 0.542 | 14 | 0.546 | 3.4 µM | 14.4 µM | 3.33 | 15.1
15 | Cc1ccc(S(=O)(=O)NNC(C[N+](=O)[O-])c2ccccc2)cc1 (stereo unspecified) | – | – | 45.1 µM | 79.4 | 32.1 µM | 35.7 µM | 36.7 µM | 41 | – | – | – | – | – | – | – | – | – | 5.56 µM | – | 57.5
16 | CC(C)c1ccc(/C=N/N=C(N)N)cc1 | – | – | 14.4 µM | 11.6 | 23.2 µM | 25.1 µM | 8.16 µM | 26 | – | – | 3.89 | 3.5 | 10.3 | – | 2.54 | 5.68 | 3.31 µM | 12.7 µM | 2.03 | 5.53
17 | C[n+]1cc2cc3c(cc2c2ccccc21)OCO3 | – | – | 14.5 µM | 19.4 | 36 µM | 2.57 µM | 14.3 µM | 9.6 | – | – | 2.98 | 3.13 | 3.78 | 0.48 | 2.71 | 2.22 | 3.78 µM | > 100 µM | 2.95 | 14.4
18 | CC(=O)OC1CC2(O)C(CCC3(C)C(c4ccc(=O)oc4)CCC32O)C2(C)CCC(OC3OC(CO)C(O)C(O)C3O)C=C12 (stereo unspecified) | – | – | 0.0282 µM | 0.0949 | 0.153 µM | 0.04 µM | 0.0672 µM | 0.192 | – | – | < 0.01 | 0.0282 | 0.0273 | 0.0112 | 0.0196 | 0.0333 | 0.015 µM | 0.0541 µM | 0.0402 | 0.837
19 | C=CCN(N=O)C(=O)N(CCCCC(NC(C)=O)C(=O)NCc1ccccc1)Cc1ccccc1 (stereo unspecified) | 36.7 | > 100 µM | > 100 µM | > 100 | > 100 µM | > 100 µM | 30 µM | > 100 | – | – | – | – | – | – | – | – | – | – | – | –
20 | COc1cccc2c1C(=O)c1c(O)c3c(c(O)c1C2=O)C[C@@](O)(C(C)=O)C[C@@H]3OC1CC(O)C(O)C(C)O1 (stereo partly specified) | – | 9.24 µM and 6.19 µM | 2.73 µM and 5.19 µM | 23.6 | 9.94 µM and 16.9 µM | 9.38 µM and 12.8 µM | 5.06 µM and 2.78 µM | – | – | – | – | – | – | – | – | – | 0.089 µM and 0.0887 µM | 0.451 µM and 0.497 µM | – | 36.9
